Data from patent publication US8673935B2, “Drugs for the treatment of sarcogylcanopathies” (Genethon, priority 2006, dated 2014).
Where a SMILES comes first, the peptide text is derived from it. The star is where a group is joined. Cbz = O=C(OCc1ccccc1)*

What was measured:
[1] = test system: mutant R77C α-sarcoglycan; assay: Quadritransfected cell model: membrane targeting of mutant R77C α-sarcoglycan, immunohistochemical labelling; format: cell-based, human
Protocol: (§1) A second aspect of the invention relates to the assay used for in vitro assessment of the efficacy of inhibitors of the endoplasmic reticulum associated degradation (ERAD) pathway, used for the treatment of sarcoglycanopathies. This assay consists of the following steps: • co-transfection of cells with the four sarcoglycan genes (γ-, α-, β- and δ-), of which one carries the mutation to be tested; • incubation for several hours in the presence of the inhibitor; • localisation of the sarcoglycan complex.
(§2) Cross-sections were dried, then rehydrated in PBS or fixed cells were treated for 20 min with 1% triton in PBS, then incubated for 30 min at room temperature (RT) in PBS containing 15% foetal calf serum. Cross-sections were incubated with polyclonal anti-sarcoglycan antibodies (α-sarcoglycan: dilution 1/1000, targeting amino acids 366-379 of human α-sarcoglycan; β-sarcoglycan: dilution 1/20, NCL-b-SARC (Novocastra); γ-sarcoglycan: dilution 1/20, NCL-g-SARC (Novocastra); dystrophin: dilution 1/20, NCL-DYS2 (Novocastra); and calreticulin: dilution 1/70, ab4109 (Abcam)) for 1 to 2 hours at RT then rinsed 3 times in PBS. […] Cross-sections were then rinsed three times in PBS, mounted with fluoromount-G (Southern Biotech 0100-01) and then observed with a confocal microscope (Leica). Immunohistochemical analysis of human biopsy specimens was performed as described in Hackman et al. (9).
NIH3T3 or 911 cells were grown in Dulbecco's Modified Eagle Medium supplemented with glutamine, gentamicin and 10% foetal calf serum. Cells were transfected using […] Fugene (ROCHE) per 1 μg plasmid. 0.5 μg of each plasmid (α-SG or α-SG-R77C and β-SG, γ-SG, δ-SG) was used per well in 6-well dishes. For treatment by inhibitors, 43 hours after transfection cells were incubated for 5 hours with either the mannosidase inhibitor (kifunensin 5 μM, VWR) or the proteasome inhibitor (MG132 5 μM diluted in DMSO, Sigma). Cells were then rinsed in PBS and fixed with 3.7% formaldehyde in PBS for 15 min at RT, and rinsed three more times in PBS before immunohistochemical labelling. […]

[2] = test system: mutant E262K δ-sarcoglycan; assay: Quadritransfected cell model: immunohistochemical labelling of mutant E262K δ-sarcoglycan; format: cell-based, human; details: dMJ 5 or 100; FIG. 12B
Protocol: as §1
B/Immunohistochemical labelling of δ-sarcoglycan in cells quadritransfected with the three α-, β- and γ-sarcoglycans and mutant E262K δ-sarcoglycan with or without 1-deoxymannojirimycin (dMJ) 5 or 100
FIG. 13: A/Immunohistochemical labelling of δ-sarcoglycan in cells quadritransfected with the three α-, β- and γ-sarcoglycans and mutant E262K δ-sarcoglycan with or without kifunensin 5 μM.
(§3) Cross-sections were dried, then rehydrated in PBS or fixed cells were treated for 20 min with 1% triton in PBS, then incubated for 30 min at room temperature (RT) in PBS containing 15% foetal calf serum. […]

[3] = test system: mutant Q11E β-sarcoglycan; assay: Quadritransfected cell model: immunohistochemical labelling of mutant Q11E β-sarcoglycan; format: cell-based, human; details: dMJ 5, 50 or 100 μM; FIG. 12C
Protocol: as §1
C/Immunohistochemical labelling of β-sarcoglycan in cells quadritransfected with the three α-, γ- and δ-sarcoglycans and mutant Q11E β-sarcoglycan with or without 1-deoxymannojirimycin (dMJ) 5, 50 or 100 μM.
B/Immunohistochemical labelling of β-sarcoglycan in cells quadritransfected with the three α-, γ- and δ-sarcoglycans and mutant Q11E β-sarcoglycan with or without kifunensin 5 μM.
as §3

[4] = cited from earlier work
[5] = test system: mutant α-sarcoglycan in Sgca−/− muscle; assay: Intramuscular inhibitor in Sgca−/− mice injected with AAV-SGCA77C vector: α-sarcoglycan labelling of muscle; format: in vivo, mouse; details: AAV-SGCA77C in tibialis anterior, 10 μM kifunensin intramuscular over one week, FIG. 11
Protocol: as §2
The rAAV2/1 viral preparations were injected (10^10 viral genomes (vg) in 30 μl total volume) in the left tibialis anterior muscle of Sgca−/− mice. On days 20, 22, 25 and 27 after injection, 10 μM kifunensin or 20 μM MG132 were injected into the muscle (i.e. either twice or 4 times the concentrations used in vitro to take into account diffusion within the muscle). One day prior to sacrifice (day 27), mice were injected intraperitoneally with Evans blue dye. […]

OC[C@H]1NC[C@@H](O)[C@@H](O)[C@@H]1O [1-deoxymannojirimycin]
membrane targeting of mutant α-sarcoglycan (R77C) ([1]; 100 μM 1-deoxymannojirimycin, FIG. 12A): efficacy of this substance for restoring membrane targeting
restoration for mutation E262K on sub-unit δ [2]: confirmed our working hypothesis
restoration for mutation Q11E on sub-unit β [3]: confirmed our working hypothesis

CC(C)C[C@@H](C=O)NC(=O)[C@H](CC(C)C)NC(=O)[C@H](CC(C)C)NC(=O)OCc1ccccc1 [MG132] (Cbz-Leu-Leu-Leu-aldehyde)
membrane targeting of mutant α-sarcoglycan (R77C) ([1]; MG132 5 μM, 5 hours, 43 hours after transfection, NIH3T3 or 911 cells, FIG. 9): restored membrane targeting

O=C1N[C@@H]2[C@@H](O)[C@@H](O)[C@H](O)[C@@H](CO)N2C1=O [kifunensin, Kifunensin]
water solubility [4]: water-soluble
membrane targeting of mutant α-sarcoglycan (R77C) ([1]; kifunensin 5 μM, 5 hours, 43 hours after transfection, NIH3T3 or 911 cells, FIG. 10): restore membrane targeting
intracellular α-sarcoglycan aggregates in muscle [5]: absence of aggregates
